Test results published in patent publication US20120101032A1, “NOVEL MACROCYCLIC INHIBITORS OF HEPATITIS C VIRUS REPLICATION” (priority 2010, published 2012).
Read-outs that look alike come from different tables or passages of the source.

Columns and labels:
hepatitis C replicon = hepatitis C replicon EC50 assay; type: cell-based; conditions: Hepatitis C virus
Text: NS3-NS4 inhibition activity can be determined using known assay methods.

NS3/NS4 complexes = NS3/NS4 complexes (Hepatitis C virus genotype 1a, UniProt P27958); assay: biochemical; conditions: NS3-NS4 activity; 23° C., pH 7.5, 25 μM NS4A peptide; read-out: IC50
Text: NS3-NS4 inhibition activity can be determined using known assay methods. For example, NS3/NS4 complexes may be formed and inhibitory concentrations of test compounds determined as described in U.S. Patent Application Publication Number 2007/0054842 paragraph numbers 1497-1509, which is incorporated herein by reference in its entirety. Similarly, hepatitis C replicon EC50 may be determined using known assay methods such as described in U.S. Patent Application Publication Number 2007/0054842 paragraph numbers 1510-1515, which is incorporated herein by reference in its entirety. Assays may be conducted at ambient temperature (23° C.) in assay buffer containing 50 mM Tris-HCl, pH 7.5, 15% glycerol, 0.6 mM Lauryldimethylamine Oxide (LDAO), 25 μM NS4A peptide, and 10 mM Dithiothreitol (DTT).

[1] = hepatitis C replicon, read-out: EC50

NS3/NS4 complexes, sequence (P27958 1027-1657, one chain of several): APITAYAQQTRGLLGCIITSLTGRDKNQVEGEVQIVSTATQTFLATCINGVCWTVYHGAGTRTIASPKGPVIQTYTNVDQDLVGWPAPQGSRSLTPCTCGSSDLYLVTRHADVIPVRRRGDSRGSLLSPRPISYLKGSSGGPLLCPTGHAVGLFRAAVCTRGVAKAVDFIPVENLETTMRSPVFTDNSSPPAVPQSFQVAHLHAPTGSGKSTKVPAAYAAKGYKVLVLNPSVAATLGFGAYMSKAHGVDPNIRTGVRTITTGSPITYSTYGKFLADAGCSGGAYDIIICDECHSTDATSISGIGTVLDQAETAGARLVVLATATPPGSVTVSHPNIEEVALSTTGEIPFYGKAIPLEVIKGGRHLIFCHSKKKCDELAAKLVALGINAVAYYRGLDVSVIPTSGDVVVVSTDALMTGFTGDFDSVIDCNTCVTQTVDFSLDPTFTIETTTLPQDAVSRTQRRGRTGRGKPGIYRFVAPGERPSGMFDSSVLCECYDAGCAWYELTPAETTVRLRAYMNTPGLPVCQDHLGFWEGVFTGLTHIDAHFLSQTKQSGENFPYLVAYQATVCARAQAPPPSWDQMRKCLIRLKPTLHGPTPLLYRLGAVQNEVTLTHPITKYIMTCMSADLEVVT

Compound | EC50 (hepatitis C replicon; [1]) | IC50 (NS3/NS4 complexes) | EC50 (hepatitis C replicon)
CC(C)n1c(O[C@@H]2C[C@H]3C(=O)N[C@]4(C(=O)NS(=O)(=O)C5(C)CC5)C[C@H]4/C=C\CCCCC[C@H](NC(=O)OC4CCCC4)C(=O)N3C2)nc2c(-c3nc(Cc4ccccc4)cs3)cccc21 [Compound 165] | < 10 nM | < 10 nM | –
CC(C)n1c(O[C@@H]2C[C@H]3C(=O)N[C@]4(C(=O)NS(=O)(=O)N(C)C)C[C@H]4/C=C\CCCCC[C@H](NC(=O)OC(C)(C)C)C(=O)N3C2)nc2c(-c3nc(Cc4ccc(-c5ccccc5)cc4)cs3)cccc21 [Compound 154] | 10 to 100 nM | < 10 nM | –
CC(C)n1c(O[C@@H]2C[C@H]3C(=O)N[C@]4(C(=O)NS(=O)(=O)N(C)C)C[C@H]4/C=C\CCCCC[C@H](NC(=O)OC(C)(C)C)C(=O)N3C2)nc2c(-c3nc(-c4ccc5c(c4)OCCO5)cs3)cccc21 [Compound 142] | 10 to 100 nM | < 10 nM | –
CC(C)n1c(O[C@@H]2C[C@H]3C(=O)N[C@]4(C(=O)NS(=O)(=O)N(C)C)C[C@H]4/C=C\CCCCC[C@H](NC(=O)OC(C)(C)C)C(=O)N3C2)nc2c(-c3cncnc3)cccc21 [Compound 161] | < 10 nM | < 10 nM | –
CC(C)c1ccc(Cc2csc(-c3cccc4c3nc(O[C@@H]3C[C@H]5C(=O)N[C@]6(C(=O)NS(=O)(=O)C7(C)CC7)C[C@H]6/C=C\CCCCC[C@H](NC(=O)OC(C)(C)C)C(=O)N5C3)n4C(C)C)n2)cc1 [Compound 116] | 10 to 100 nM | < 10 nM | –
CC(C)c1csc(-c2nc3c(c(O[C@@H]4C[C@H]5C(=O)N[C@]6(C(=O)NS(=O)(=O)C7(C)CC7)C[C@H]6/C=C\CCCCC[C@H](NC(=O)OC(C)(C)C)C(=O)N5C4)n2)CCCC3)n1 [Compound 303] | – | 10 to 100 nM | 10 to 100 nM
CC(C)n1c(O[C@@H]2C[C@H]3C(=O)N[C@]4(C(=O)NS(=O)(=O)C5(C)CC5)C[C@H]4/C=C\CCCCC[C@H](NC(=O)OC(C)(C)C)C(=O)N3C2)nc2c(-c3cncc(N4CCCC4)n3)cccc21 [Compound 128] | < 10 nM | < 10 nM | –
CC(C)n1c(O[C@@H]2C[C@H]3C(=O)N[C@]4(C(=O)NS(=O)(=O)N(C)C)C[C@H]4/C=C\CCCCC[C@H](NC(=O)OC(C)(C)C)C(=O)N3C2)nc2c(-c3nc(-c4ccc(Br)cc4)cs3)cccc21 [Compound 137] | > 100 nM | < 10 nM | –
CC(C)c1ccc(Cc2csc(-c3cccc4c3nc(O[C@@H]3C[C@H]5C(=O)N[C@]6(C(=O)NS(=O)(=O)N(C)C)C[C@H]6/C=C\CCCCC[C@H](NC(=O)OC(C)(C)C)C(=O)N5C3)n4C(C)C)n2)cc1 [Compound 148] | 10 to 100 nM | < 10 nM | –
CC(C)n1c(O[C@@H]2C[C@H]3C(=O)N[C@]4(C(=O)NS(=O)(=O)C5(C)CC5)C[C@H]4/C=C\CCCCC[C@H](NC(=O)OC(C)(C)C)C(=O)N3C2)nc2c(-c3nc(-c4ccc(F)cc4F)cs3)cccc21 [Compound 111] | 10 to 100 nM | < 10 nM | –
CC(C)n1c(O[C@@H]2C[C@H]3C(=O)N[C@]4(C(=O)NS(=O)(=O)N(C)C)C[C@H]4/C=C\CCCCC[C@H](NC(=O)OC(C)(C)C)C(=O)N3C2)nc2c(-c3cscn3)cccc21 [Compound 163] | < 10 nM | < 10 nM | –
CC(C)(C)OC(=O)N[C@H]1CCCCC/C=C\[C@@H]2C[C@@]2(C(=O)NS(=O)(=O)C2(C)CC2)NC(=O)[C@@H]2C[C@@H](Oc3nc4cccc(-c5nc(C6CCCCC6)cs5)c4nc3C(F)(F)F)CN2C1=O [Compound 701] | > 100 nM | < 10 nM | –
CC(C)n1c(O[C@@H]2C[C@H]3C(=O)N[C@]4(C(=O)NS(=O)(=O)N(C)C)C[C@H]4/C=C\CCCCC[C@H](NC(=O)OC(C)(C)C)C(=O)N3C2)nc2c(-c3nc(Cc4ccc(Cl)cc4)cs3)cccc21 [Compound 151] | < 10 nM | < 10 nM | –
Cc1ccc2c(nc(O[C@@H]3C[C@H]4C(=O)N[C@]5(C(=O)NS(=O)(=O)N(C)C)C[C@H]5/C=C\CCCCC[C@H](NC(=O)OC(C)(C)C)C(=O)N4C3)n2C(C)C)c1-c1nc(C2CCCC2)cs1 [Compound 168] | 10 to 100 nM | < 10 nM | –
CC(C)n1c(O[C@@H]2C[C@H]3C(=O)N[C@]4(C(=O)NS(=O)(=O)N(C)C)C[C@H]4/C=C\CCCCC[C@H](NC(=O)OC(C)(C)C)C(=O)N3C2)nc2c(-c3csc(N4CCN(C)CC4)n3)cccc21 [Compound 160] | < 10 nM | < 10 nM | –
CC(C)n1c(O[C@@H]2C[C@H]3C(=O)N[C@]4(C(=O)NS(=O)(=O)N(C)C)C[C@H]4/C=C\CCCCC[C@H](NC(=O)OC(C)(C)C)C(=O)N3C2)nc2c(-c3nc(Cc4ccc(OC(F)(F)F)cc4)cs3)cccc21 [Compound 155] | 10 to 100 nM | < 10 nM | –

Compound | EC50 (hepatitis C replicon; [1]) | IC50 (NS3/NS4 complexes) | EC50 (hepatitis C replicon)
CC(C)n1c(O[C@@H]2C[C@H]3C(=O)N[C@]4(C(=O)NS(=O)(=O)N(C)C)C[C@H]4/C=C\CCCCC[C@H](N)C(=O)N3C2)nc2c(-c3csc(N4CCCCC4)n3)cccc21 [Compound 169] | > 100 nM | < 10 nM | –
CC(C)n1c(O[C@@H]2C[C@H]3C(=O)N[C@]4(C(=O)NS(=O)(=O)C5(C)CC5)C[C@H]4/C=C\CCCCC[C@H](NC(=O)OC(C)(C)C)C(=O)N3C2)nc2c(-c3nc(-c4ccc(C(C)(C)C)cc4)cs3)cccc21 [Compound 113] | 10 to 100 nM | < 10 nM | –
CC(C)n1c(O[C@@H]2C[C@H]3C(=O)N[C@]4(C(=O)NS(=O)(=O)N(C)C)C[C@H]4/C=C\CCCCC[C@H](NC(=O)OC(C)(C)C)C(=O)N3C2)nc2c(-c3csc(-c4ccc(F)c(F)c4)n3)cccc21 [Compound 164] | > 100 nM | 10 to 100 nM | –
Cc1nc2cccc(-c3nc(C4CCCCC4)cs3)c2nc1O[C@@H]1C[C@H]2C(=O)N[C@]3(C(=O)NS(=O)(=O)C4(C)CC4)C[C@H]3/C=C\CCCCC[C@H](NC(=O)OC(C)(C)C)C(=O)N2C1 [Compound 703] | < 10 nM | < 10 nM | –
CC(C)n1c(O[C@@H]2C[C@H]3C(=O)N[C@]4(C(=O)NS(=O)(=O)N(C)C)C[C@H]4/C=C\CCCCC[C@H](NC(=O)OC(C)(C)C)C(=O)N3C2)nc2c(-c3nc(-c4ccc(C(F)(F)F)cc4)cs3)cccc21 [Compound 141] | > 100 nM | < 10 nM | –
CC(C)n1c(O[C@@H]2C[C@H]3C(=O)N[C@]4(C(=O)NS(=O)(=O)C5(C)CC5)C[C@H]4/C=C\CCCCC[C@H](N)C(=O)N3C2)nc2c(-c3nc(C(F)(F)F)cs3)cccc21 [Compound 175] | 10 to 100 nM | < 10 nM | –
CC(C)n1c(O[C@@H]2C[C@H]3C(=O)N[C@]4(C(=O)NS(=O)(=O)N(C)C)C[C@H]4/C=C\CCCCC[C@H](NC(=O)OC(C)(C)C)C(=O)N3C2)nc2c(-c3cnccn3)cccc21 [Compound 159] | < 10 nM | < 10 nM | –
CC(C)n1c(O[C@@H]2C[C@H]3C(=O)N[C@]4(C(=O)NS(=O)(=O)N(C)C)C[C@H]4/C=C\CCCCC[C@H](NC(=O)OC(C)(C)C)C(=O)N3C2)nc2c(-c3nc(-c4cccc(F)c4)cs3)cccc21 [Compound 133] | 10 to 100 nM | < 10 nM | –
COc1ccc(Cc2csc(-c3cccc4c3nc(O[C@@H]3C[C@H]5C(=O)N[C@]6(C(=O)NS(=O)(=O)C7(C)CC7)C[C@H]6/C=C\CCCCC[C@H](NC(=O)OC(C)(C)C)C(=O)N5C3)n4C(C)C)n2)cc1 [Compound 124] | < 10 nM | < 10 nM | –
CC(C)n1c(O[C@@H]2C[C@H]3C(=O)N[C@]4(C(=O)NS(=O)(=O)C5CC5)C[C@H]4/C=C\CCCCC[C@H](N)C(=O)N3C2)nc2c(-c3nc(C4CCCCC4)cs3)cccc21 [Compound 173] | > 100 nM | < 10 nM | –
Cc1ccccc1Cc1csc(-c2cccc3c2nc(O[C@@H]2C[C@H]4C(=O)N[C@]5(C(=O)NS(=O)(=O)C6(C)CC6)C[C@H]5/C=C\CCCCC[C@H](NC(=O)OC(C)(C)C)C(=O)N4C2)n3C(C)C)n1 [Compound 114] | < 10 nM | < 10 nM | –
COc1ccc2c(O[C@@H]3C[C@H]4C(=O)N[C@]5(C(=O)NS(=O)(=O)C6(C)CC6)C[C@H]5/C=C\CCCCC[C@H](N)C(=O)N4C3)cc(C(C)C)nc2c1C [Compound 502] | > 100 nM | < 10 nM | –
Cc1ccc2c(nc(O[C@@H]3C[C@H]4C(=O)N[C@]5(C(=O)NS(=O)(=O)N(C)C)C[C@H]5/C=C\CCCCC[C@H](NC(=O)OC(C)(C)C)C(=O)N4C3)n2C(C)C)c1-c1nc(C(C)C)cs1 [Compound 167] | 10 to 100 nM | < 10 nM | –
CC(C)n1c(O[C@@H]2C[C@H]3C(=O)N[C@]4(C(=O)NS(=O)(=O)N(C)C)C[C@H]4/C=C\CCCCC[C@H](NC(=O)OC(C)(C)C)C(=O)N3C2)nc2c(-c3nc(-c4ccc(F)c(C(F)(F)F)c4)cs3)cccc21 [Compound 135] | > 100 nM | < 10 nM | –
CC(C)(C)OC(=O)N[C@H]1CCCCC/C=C\[C@@H]2C[C@@]2(C(=O)NS(=O)(=O)C2(C)CC2)NC(=O)[C@@H]2C[C@@H](Oc3nc4c(-c5nc(C6CCCCC6)cs5)cccc4nc3C(F)(F)F)CN2C1=O [Compound 702] | < 10 nM | < 10 nM | –
